Data as given in patent US20050234652A1, “Nuclear magnetic resonance-docking of compounds” (Triad Therapeutics, Inc., priority 2001, published 2005).

Molecular target: T1, DHPR (Escherichia coli, UniProt P04036)
T1 construct: made in house; host or cells: E. coli BL21 (DE3) Gold
Assay: binding of ligands to DHPR (dissociation constants)
Parameters: species or system E. coli
Text: The resonance assignments for DHPR residues Thr80, Thr104 and Met17 were obtained as follows. Differential chemical shift perturbation was observed by comparing the spectra of MIT-DHPR bound to 2,6-pyridinedicarboxylate (PDC) and the spectra of MIT-DHPR bound to 4-Cl PDC. Distinct changes in chemical shift for only one of the methionine ^13C^ε/^1H^ε resonances was detected, which therefore identified the signals as being associated with M17 as shown in FIG. 1D. Both PDC and 4-Cl PDC bound to DHPR with micromolar dissociation constants, so that, at the concentrations used, the protein was saturated in both samples. Therefore, the resultant chemical shift differences originate solely from the small perturbation introduced by binding slightly different ligands. Similarly, resonance assignments were obtained for residues T104 and […] with differential chemical shifts comparing spectra obtained for complexes formed with NADH and 3-acetyl pyridine NADH.

T1 sequence (P04036 whole entry): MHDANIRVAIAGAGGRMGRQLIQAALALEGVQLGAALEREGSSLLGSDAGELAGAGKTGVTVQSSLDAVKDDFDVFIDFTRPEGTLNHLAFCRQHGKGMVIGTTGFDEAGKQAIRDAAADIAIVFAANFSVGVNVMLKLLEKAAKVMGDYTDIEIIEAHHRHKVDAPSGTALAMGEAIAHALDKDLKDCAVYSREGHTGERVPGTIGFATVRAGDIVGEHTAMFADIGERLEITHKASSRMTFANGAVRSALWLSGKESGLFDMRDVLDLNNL

## O=C(O)c1cccc(C(=O)O)n1 [PDC, 2,6-pyridinedicarboxylate]
  dissociation constants: micromolar

## O=C(O)c1cc(Cl)cc(C(=O)O)n1 [4-Cl PDC]
  dissociation constants: micromolar
